How the values were obtained:
Test in all cases: relative viability (nuclei count vs DMSO), 5 days (fraction); higher = more cells survive
IPA-3 + Navitoclax = compound: C1=CC=C2C(=C1)C=CC(=C2SSC3=C(C=CC4=CC=CC=C43)O)O [IPA-3] + CC1(C)CCC(c2ccc(Cl)cc2)=C(CN2CCN(c3ccc(C(=O)NS(=O)(=O)c4ccc(N[C@H](CCN5CCOCC5)CSc5ccccc5)c(S(=O)(=O)C(F)(F)F)c4)cc3)CC2)C1 [Navitoclax] (partner 0.5 µM)
In short: (§1)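 Relative viability equals treated-well nuclei counts divided by vehicle-well nuclei counts. Counts came from 4× images of lung cancer cell lines grown in 1536-well plates for 5 days after pin-tool dosing on the day after seeding. Dosing used one drug alone or a fixed anchor-drug dose plus five library-drug doses (not always all listed) in √10 steps, and values are medians of duplicate plates.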

IPA-3 + Lapatinib = compound: C1=CC=C2C(=C1)C=CC(=C2SSC3=C(C=CC4=CC=CC=C43)O)O [IPA-3] + CS(=O)(=O)CCNCc1ccc(-c2ccc3ncnc(Nc4ccc(OCc5cccc(F)c5)c(Cl)c4)c3c2)o1 [Lapatinib] (partner 2 µM)
In short: as §1

Doramapimod + Bortezomib = compound: Cc1ccc(-n2nc(C(C)(C)C)cc2NC(=O)Nc2ccc(OCCN3CCOCC3)c3ccccc23)cc1 [Doramapimod] + CC(C)C[C@H](NC(=O)[C@H](Cc1ccccc1)NC(=O)c1cnccn1)B(O)O [Bortezomib] (partner 0.002 µM)
In short: as §1

Doramapimod + Linsitinib = compound: Cc1ccc(-n2nc(C(C)(C)C)cc2NC(=O)Nc2ccc(OCCN3CCOCC3)c3ccccc23)cc1 [Doramapimod] + C[C@]1(O)C[C@@H](c2nc(-c3ccc4ccc(-c5ccccc5)nc4c3)c3c(N)nccn32)C1 [Linsitinib] (partner 1 µM)
In short: as §1

NCI-H1651
relative viability (IPA-3 + Navitoclax; first compound 0.2 µM): 1.06
relative viability (IPA-3 + Navitoclax; first compound 2 µM): 0.998
relative viability (IPA-3 + Navitoclax; first compound 6.325 µM): 1.1
relative viability (IPA-3 + Navitoclax; first compound 20 µM): 1.19
relative viability (IPA-3 + Lapatinib; first compound 0.2 µM): 1.18
relative viability (IPA-3 + Lapatinib; first compound 2 µM): 0.863
relative viability (IPA-3 + Lapatinib; first compound 6.325 µM): 0.852
relative viability (IPA-3 + Lapatinib; first compound 20 µM): 0.931
relative viability (Doramapimod + Bortezomib; first compound 0.02 µM): 0.922
relative viability (Doramapimod + Bortezomib; first compound 0.06325 µM): 0.996
relative viability (Doramapimod + Bortezomib; first compound 0.2 µM): 0.931
relative viability (Doramapimod + Bortezomib; first compound 0.6325 µM): 0.987
relative viability (Doramapimod + Bortezomib; first compound 2 µM): 0.907
relative viability (Doramapimod + Linsitinib; first compound 0.02 µM): 0.92
relative viability (Doramapimod + Linsitinib; first compound 0.06325 µM): 0.844
relative viability (Doramapimod + Linsitinib; first compound 0.2 µM): 0.923
relative viability (Doramapimod + Linsitinib; first compound 0.6325 µM): 0.977
relative viability (Doramapimod + Linsitinib; first compound 2 µM): 0.917

HARA
relative viability (IPA-3 + Navitoclax; first compound 0.2 µM): 1.18
relative viability (IPA-3 + Navitoclax; first compound 0.6325 µM): 1.09
relative viability (IPA-3 + Navitoclax; first compound 2 µM): 1.12
relative viability (IPA-3 + Navitoclax; first compound 6.325 µM): 1.01
relative viability (IPA-3 + Navitoclax; first compound 20 µM): 1.2
relative viability (IPA-3 + Lapatinib; first compound 0.2 µM): 0.764
relative viability (IPA-3 + Lapatinib; first compound 0.6325 µM): 0.659
relative viability (IPA-3 + Lapatinib; first compound 2 µM): 0.57
relative viability (IPA-3 + Lapatinib; first compound 6.325 µM): 0.793
relative viability (IPA-3 + Lapatinib; first compound 20 µM): 0.74
relative viability (Doramapimod + Bortezomib; first compound 0.02 µM): 1.15
relative viability (Doramapimod + Bortezomib; first compound 0.06325 µM): 1.03
relative viability (Doramapimod + Bortezomib; first compound 0.2 µM): 1.14
relative viability (Doramapimod + Bortezomib; first compound 0.6325 µM): 1.04
relative viability (Doramapimod + Bortezomib; first compound 2 µM): 0.994
relative viability (Doramapimod + Linsitinib; first compound 0.02 µM): 0.943
relative viability (Doramapimod + Linsitinib; first compound 0.06325 µM): 0.901
relative viability (Doramapimod + Linsitinib; first compound 0.2 µM): 0.904
relative viability (Doramapimod + Linsitinib; first compound 0.6325 µM): 0.987
relative viability (Doramapimod + Linsitinib; first compound 2 µM): 0.805

NCI-H2347
relative viability (IPA-3 + Navitoclax; first compound 0.2 µM): 0.962
relative viability (IPA-3 + Navitoclax; first compound 0.6325 µM): 0.792
relative viability (IPA-3 + Navitoclax; first compound 2 µM): 0.633
relative viability (IPA-3 + Navitoclax; first compound 6.325 µM): 0.88
relative viability (IPA-3 + Navitoclax; first compound 20 µM): 0.988
relative viability (IPA-3 + Lapatinib; first compound 0.2 µM): 1.08
relative viability (IPA-3 + Lapatinib; first compound 0.6325 µM): 0.938
relative viability (IPA-3 + Lapatinib; first compound 2 µM): 0.99
relative viability (IPA-3 + Lapatinib; first compound 6.325 µM): 0.945
relative viability (IPA-3 + Lapatinib; first compound 20 µM): 0.935
relative viability (Doramapimod + Bortezomib; first compound 0.06325 µM): 0.72
relative viability (Doramapimod + Bortezomib; first compound 0.2 µM): 1.19
relative viability (Doramapimod + Bortezomib; first compound 0.6325 µM): 1.07
relative viability (Doramapimod + Bortezomib; first compound 2 µM): 0.963
relative viability (Doramapimod + Linsitinib; first compound 0.02 µM): 1.04
relative viability (Doramapimod + Linsitinib; first compound 0.06325 µM): 0.974
relative viability (Doramapimod + Linsitinib; first compound 0.2 µM): 0.96
relative viability (Doramapimod + Linsitinib; first compound 0.6325 µM): 1.01
relative viability (Doramapimod + Linsitinib; first compound 2 µM): 0.846

201T
relative viability (IPA-3 + Navitoclax; first compound 0.2 µM): 1.21
relative viability (IPA-3 + Navitoclax; first compound 0.6325 µM): 1.19
relative viability (IPA-3 + Navitoclax; first compound 2 µM): 1.21
relative viability (IPA-3 + Navitoclax; first compound 6.325 µM): 1.22
relative viability (IPA-3 + Navitoclax; first compound 20 µM): 1.18
relative viability (IPA-3 + Lapatinib; first compound 0.2 µM): 1.06
relative viability (IPA-3 + Lapatinib; first compound 0.6325 µM): 1.05
relative viability (IPA-3 + Lapatinib; first compound 2 µM): 1.02
relative viability (IPA-3 + Lapatinib; first compound 6.325 µM): 1.04
relative viability (IPA-3 + Lapatinib; first compound 20 µM): 1.07
relative viability (Doramapimod + Bortezomib; first compound 0.02 µM): 1.16
relative viability (Doramapimod + Bortezomib; first compound 0.06325 µM): 1.16
relative viability (Doramapimod + Bortezomib; first compound 0.2 µM): 1.09
relative viability (Doramapimod + Bortezomib; first compound 0.6325 µM): 1.29
relative viability (Doramapimod + Bortezomib; first compound 2 µM): 1.16
relative viability (Doramapimod + Linsitinib; first compound 0.02 µM): 1.05
relative viability (Doramapimod + Linsitinib; first compound 0.06325 µM): 1.07
relative viability (Doramapimod + Linsitinib; first compound 0.2 µM): 0.971
relative viability (Doramapimod + Linsitinib; first compound 0.6325 µM): 1.03
relative viability (Doramapimod + Linsitinib; first compound 2 µM): 0.958

PC-14
relative viability (IPA-3 + Navitoclax; first compound 0.2 µM): 1.09
relative viability (IPA-3 + Navitoclax; first compound 0.6325 µM): 1.03
relative viability (IPA-3 + Navitoclax; first compound 2 µM): 0.994
relative viability (IPA-3 + Navitoclax; first compound 6.325 µM): 0.988
relative viability (IPA-3 + Navitoclax; first compound 20 µM): 0.974
relative viability (IPA-3 + Lapatinib; first compound 0.2 µM): 0.419
relative viability (IPA-3 + Lapatinib; first compound 0.6325 µM): 0.331
relative viability (IPA-3 + Lapatinib; first compound 2 µM): 0.328
relative viability (IPA-3 + Lapatinib; first compound 6.325 µM): 0.328
relative viability (IPA-3 + Lapatinib; first compound 20 µM): 0.407
relative viability (Doramapimod + Bortezomib; first compound 0.02 µM): 0.968
relative viability (Doramapimod + Bortezomib; first compound 0.06325 µM): 0.845
relative viability (Doramapimod + Bortezomib; first compound 0.2 µM): 0.778
relative viability (Doramapimod + Bortezomib; first compound 0.6325 µM): 1.01
relative viability (Doramapimod + Bortezomib; first compound 2 µM): 0.81
relative viability (Doramapimod + Linsitinib; first compound 0.02 µM): 1.01
relative viability (Doramapimod + Linsitinib; first compound 0.06325 µM): 1.03
relative viability (Doramapimod + Linsitinib; first compound 0.2 µM): 0.981
relative viability (Doramapimod + Linsitinib; first compound 0.6325 µM): 0.931
relative viability (Doramapimod + Linsitinib; first compound 2 µM): 0.9

Calu-6
relative viability (IPA-3 + Navitoclax; first compound 0.2 µM): 0.794
relative viability (IPA-3 + Navitoclax; first compound 0.6325 µM): 0.839
relative viability (IPA-3 + Navitoclax; first compound 2 µM): 0.833
relative viability (IPA-3 + Navitoclax; first compound 6.325 µM): 0.753
relative viability (IPA-3 + Navitoclax; first compound 20 µM): 0.536
relative viability (IPA-3 + Lapatinib; first compound 0.2 µM): 1.15
relative viability (IPA-3 + Lapatinib; first compound 0.6325 µM): 0.958
relative viability (IPA-3 + Lapatinib; first compound 2 µM): 1.05
relative viability (IPA-3 + Lapatinib; first compound 6.325 µM): 1.01
relative viability (IPA-3 + Lapatinib; first compound 20 µM): 1.05
relative viability (Doramapimod + Bortezomib; first compound 0.02 µM): 1.05
relative viability (Doramapimod + Bortezomib; first compound 0.06325 µM): 1.03
relative viability (Doramapimod + Bortezomib; first compound 0.2 µM): 1.02
relative viability (Doramapimod + Bortezomib; first compound 0.6325 µM): 1.11
relative viability (Doramapimod + Bortezomib; first compound 2 µM): 1.03
relative viability (Doramapimod + Linsitinib; first compound 0.02 µM): 1.02
relative viability (Doramapimod + Linsitinib; first compound 0.06325 µM): 0.978
relative viability (Doramapimod + Linsitinib; first compound 0.2 µM): 0.942
relative viability (Doramapimod + Linsitinib; first compound 0.6325 µM): 1.04
relative viability (Doramapimod + Linsitinib; first compound 2 µM): 0.966

NCI-H1703
relative viability (IPA-3 + Navitoclax; first compound 0.2 µM): 1.71
relative viability (IPA-3 + Navitoclax; first compound 0.6325 µM): 0.991
relative viability (IPA-3 + Navitoclax; first compound 2 µM): 1.05
relative viability (IPA-3 + Navitoclax; first compound 6.325 µM): 1.13
relative viability (IPA-3 + Navitoclax; first compound 20 µM): 0.765
relative viability (IPA-3 + Lapatinib; first compound 0.2 µM): 1.17
relative viability (IPA-3 + Lapatinib; first compound 0.6325 µM): 1.05
relative viability (IPA-3 + Lapatinib; first compound 2 µM): 0.861
relative viability (IPA-3 + Lapatinib; first compound 6.325 µM): 0.961
relative viability (IPA-3 + Lapatinib; first compound 20 µM): 1.35
relative viability (Doramapimod + Bortezomib; first compound 0.02 µM): 0.305
relative viability (Doramapimod + Bortezomib; first compound 0.06325 µM): 0.208
relative viability (Doramapimod + Bortezomib; first compound 0.2 µM): 0.226
relative viability (Doramapimod + Bortezomib; first compound 0.6325 µM): 0.365
relative viability (Doramapimod + Bortezomib; first compound 2 µM): 0.218
relative viability (Doramapimod + Linsitinib; first compound 0.02 µM): 0.637
relative viability (Doramapimod + Linsitinib; first compound 0.06325 µM): 0.601
relative viability (Doramapimod + Linsitinib; first compound 0.2 µM): 0.68
relative viability (Doramapimod + Linsitinib; first compound 0.6325 µM): 0.908
relative viability (Doramapimod + Linsitinib; first compound 2 µM): 0.532

NCI-H727
relative viability (IPA-3 + Navitoclax; first compound 0.2 µM): 0.447
relative viability (IPA-3 + Navitoclax; first compound 0.6325 µM): 0.377
relative viability (IPA-3 + Navitoclax; first compound 2 µM): 0.442
relative viability (IPA-3 + Navitoclax; first compound 6.325 µM): 0.614
relative viability (IPA-3 + Navitoclax; first compound 20 µM): 0.556
relative viability (IPA-3 + Lapatinib; first compound 0.2 µM): 1.15
relative viability (IPA-3 + Lapatinib; first compound 0.6325 µM): 0.832
relative viability (IPA-3 + Lapatinib; first compound 2 µM): 0.915
relative viability (IPA-3 + Lapatinib; first compound 6.325 µM): 0.952
relative viability (IPA-3 + Lapatinib; first compound 20 µM): 0.796
relative viability (Doramapimod + Bortezomib; first compound 0.02 µM): 0.853
relative viability (Doramapimod + Bortezomib; first compound 0.06325 µM): 0.818
relative viability (Doramapimod + Bortezomib; first compound 0.2 µM): 0.775
relative viability (Doramapimod + Bortezomib; first compound 0.6325 µM): 0.705
relative viability (Doramapimod + Bortezomib; first compound 2 µM): 0.87
relative viability (Doramapimod + Linsitinib; first compound 0.02 µM): 0.166
relative viability (Doramapimod + Linsitinib; first compound 0.06325 µM): 0.221
relative viability (Doramapimod + Linsitinib; first compound 0.2 µM): 0.366
relative viability (Doramapimod + Linsitinib; first compound 0.6325 µM): 0.317
relative viability (Doramapimod + Linsitinib; first compound 2 µM): 0.278

From the supplement of paper PMC10307832
